Measured values from ChEMBL document CHEMBL6103565, “Current strategies in design and synthesis of antifungals hybrid and chimeric diazine derivatives” (Bioorg Med Chem, 2025).
Values after ≈ are worked out from the molar mass of the structure shown.

Columns and labels:
Assay type in all cases: functional
[1] = test system: Candida albicans; experiment: Antifungal activity against Candida albicans assessed as diameter of zone inhibition by disc diffusion method
[2] = test system: Candida albicans; experiment: Antifungal activity against Candida albicans
[3] = test system: Aspergillus niger; experiment: Antifungal activity against Aspergillus niger assessed as inhibition of fungal growth
[4] = test system: Candida tropicalis; experiment: Antifungal activity against Candida tropicalis assessed as inhibition of fungal growth
[5] = test system: Candida albicans; experiment: Antimicrobial activity against Candida albicans ATCC 64124 assessed as reduction in microbial growth by CLSI protocol based micro-broth dilution method
[6] = test system: Candida albicans; experiment: Antifungal activity against Candida albicans assessed as diameter of zone inhibition
[7] = test system: Saccharomyces cerevisiae; experiment: Antimicrobial activity against Saccharomyces cerevisiae assessed as zone of inhibition by disc diffusion method
[8] = test system: Candida albicans; experiment: Antifungal activity against Candida albicans assessed as zone of inhibition by disc diffusion method
[9] = test system: Aspergillus niger; experiment: Antifungal activity against Aspergillus niger assessed as zone of inhibition by disc diffusion method
[10] = test system: Saccharomyces cerevisiae; experiment: Antimicrobial activity against Saccharomyces cerevisiae assessed as zone of inhibition
[11] = test system: Candida albicans; experiment: Antifungal activity against Candida albicans assessed as zone of inhibition by serial dilution and disc diffusion method
[12] = test system: Pichia kudriavzevii; experiment: Antifungal activity against Candida krusei ATCC 6258
[13] = test system: Nakaseomyces glabratus; experiment: Antifungal activity against Candida glabrata ATCC 90030
[14] = test system: Candida parapsilosis; experiment: Antifungal activity against Candida parapsilosis ATCC 22019; details: Lodderomyces parapsilosis
[15] = test system: Candida albicans; experiment: Antifungal activity against Candida albicans ATCC 10231

## Cc1ccc(C(=O)C2C3C(=O)N(c4ccccc4)C(=O)C3C3c4ccccc4C=NN23)cc1 (stereo unspecified)
[1]
  inhibition zone (IZ): 18 mm

## O=c1cc[nH]c(=O)n1N=C1CC(c2ccc(Cl)cc2)SC(c2ccc(Cl)cc2)C1 (stereo unspecified)
[2]
  MIC: 0.25 µg/mL (≈ 0.56 µM)

## Cc1ccc(C(=O)C2CC(C#N)C3c4ccccc4C=NN23)cc1 (stereo unspecified)
[1]
  inhibition zone (IZ): 18 mm

## Cc1ccc(-c2cc(-c3cnc(Cl)cn3)nc(N)n2)cc1
[3]
  MIC: 97.3 µM (≈ 29 µg/mL)
[4]
  MIC: 97.3 µM (≈ 29 µg/mL)

## Cc1nc(-c2ccc(C(C)(C)C)cc2)sc1-c1ccnc(N[C@H]2CC[C@H](N)CC2)n1
[5]
  MIC: 4 µg/mL

## CCOC(=O)c1c(C(=O)OCC)c2cc(C)ncn2c1C(=O)c1ccc(OC)cc1
[1]
  inhibition zone (IZ): 24 mm

## Nc1nc(-c2ccncc2)cc(-c2cnc(Cl)cn2)n1
[3]
  MIC: 110 µM (≈ 31.4 µg/mL)
[4]
  MIC: 110 µM (≈ 31.4 µg/mL)

## COC(=O)C1C(C(=O)OC)C(C(=O)c2ccc([N+](=O)[O-])cc2)N2N=C(c3ccc(Cl)cc3)C=CC12 (stereo unspecified)
[6]
  inhibition zone (IZ): 24 mm

## CN(C)c1ccc(/C=N/c2ncnc3[nH]ccc23)cc1
[7]
  inhibition zone (IZ): 13 mm
[8]
  inhibition zone (IZ): 15 mm

## Cc1nc(-c2ccc(C(C)(C)C)cc2)sc1-c1ccnc(N[C@H]2CCCC[C@@H]2N)n1
[5]
  MIC: 4 µg/mL

## CCOC(=O)C1CC(C(=O)c2ccccc2)N2N=C(c3ccc(Cl)cc3)C=CC12 (stereo unspecified)
[6]
  inhibition zone (IZ): 24 mm

## Cc1ccc(C2c3c([nH]c(=O)[nH]c3=O)OC(N)C2C#N)cc1 (stereo unspecified)
[9]
  inhibition zone (IZ): 10 mm

## Nc1nc(-c2ccc(F)cc2)cc(-c2cnc(Cl)cn2)n1
[3]
  MIC: 97.3 µM (≈ 29.4 µg/mL)
[4]
  MIC: 97.3 µM (≈ 29.4 µg/mL)

## Cc1ccc(C(=O)C2C3C(=O)N(c4ccccc4)C(=O)C3C3C=CC=NN32)cc1 (stereo unspecified)
[1]
  inhibition zone (IZ): 18 mm

## O=c1c(C(O)c2ccccc2)c(SCc2ccccc2)[nH]c2nc(-c3ccccc3)c(-c3ccccc3)n12 (stereo unspecified)
[9]
  inhibition zone (IZ): 15 mm

## CN(C)c1ccc(-c2cc(-c3cnc(Cl)cn3)nc(N)n2)cc1
[3]
  MIC: 97.3 µM (≈ 31.8 µg/mL)
[4]
  MIC: 97.3 µM (≈ 31.8 µg/mL)

## COc1cccc(/C=N/Nc2ncnc3[nH]ccc23)c1OC
[10]
  inhibition zone (IZ): 24 mm
[11]
  inhibition zone (IZ): 30 mm

## Nc1ccc(C(=O)NNc2nc3ccccc3nc2Cl)cc1
[12]
  MIC: 0.78 µg/mL (≈ 2.49 µM)
[13]
  MIC: 0.78 µg/mL (≈ 2.49 µM)
[14]
  MIC: 0.78 µg/mL (≈ 2.49 µM)
[15]
  MIC50: 0.78 µg/mL (≈ 2.49 µM)

## Cc1nc2ccccc2nc1N1CC(C(=O)O)=CC1=O
[12]
  MIC: 0.78 µg/mL (≈ 2.9 µM)
[13]
  MIC: 0.78 µg/mL (≈ 2.9 µM)
[14]
  MIC: 0.78 µg/mL (≈ 2.9 µM)
[15]
  MIC50: 0.78 µg/mL (≈ 2.9 µM)

## Nc1nc(-c2ccc(O)cc2)cc(-c2cnc(Cl)cn2)n1
[3]
  MIC: 97.3 µM (≈ 29.2 µg/mL)
[4]
  MIC: 97.3 µM (≈ 29.2 µg/mL)

## COc1ccc(/C=N/Nc2ncnc3[nH]ccc23)cc1
[10]
  inhibition zone (IZ): 24 mm
[11]
  inhibition zone (IZ): 30 mm

## Cc1ccc(C(=O)C2CC(C#N)C3C=CC=NN23)cc1 (stereo unspecified)
[1]
  inhibition zone (IZ): 18 mm

## O=[N+]([O-])c1cccc(/C=N/c2ncnc3[nH]ccc23)c1
[7]
  inhibition zone (IZ): 13 mm
[8]
  inhibition zone (IZ): 15 mm

## COc1ccc(-c2cc(-c3cnc(Cl)cn3)nc(N)n2)c(OC)c1
[3]
  MIC: 101 µM (≈ 34.6 µg/mL)
[4]
  MIC: 101 µM (≈ 34.6 µg/mL)

## CCOC(=O)c1cc(C(=O)c2ccc(C)cc2)n2ncc3ccccc3c12
[1]
  inhibition zone (IZ): 18 mm

## COc1ccc(-c2cc(-c3cnc(Cl)cn3)nc(N)n2)cc1
[3]
  MIC: 97.3 µM (≈ 30.5 µg/mL)
[4]
  MIC: 97.3 µM (≈ 30.5 µg/mL)

## CC1=NN(c2ccccc2)C2N=C3SCCN3C(c3ccccc3O)C12 (stereo unspecified)
[9]
  inhibition zone (IZ): 24 mm

## COc1ccc(C(=O)C2CC(C#N)C3C=C(C)N=CN23)cc1 (stereo unspecified)
[1]
  inhibition zone (IZ): 23 mm

## CC1=NN(c2ccccc2)C2N=C3SCCN3C(c3cccc([N+](=O)[O-])c3)C12 (stereo unspecified)
[9]
  inhibition zone (IZ): 24 mm

## Cc1nc2ccccc2nc1NNC(=O)c1ccc(N)cc1
[12]
  MIC: 0.78 µg/mL (≈ 2.66 µM)
[13]
  MIC: 0.78 µg/mL (≈ 2.66 µM)
[14]
  MIC: 0.78 µg/mL (≈ 2.66 µM)
[15]
  MIC50: 0.78 µg/mL (≈ 2.66 µM)

## Nc1nc(-c2cccnc2)cc(-c2cnc(Cl)cn2)n1
[3]
  MIC: 110 µM (≈ 31.4 µg/mL)
[4]
  MIC: 110 µM (≈ 31.4 µg/mL)

## COc1ccc(/C=N/Nc2ncnc3[nH]ccc23)c(OC)c1
[10]
  inhibition zone (IZ): 24 mm
[11]
  inhibition zone (IZ): 30 mm

## COc1ccc(C2c3c([nH]c(=O)[nH]c3=O)OC3N=CN(C(=S)Nc4ccccc4)C(=N)C32)cc1 (stereo unspecified)
[9]
  inhibition zone (IZ): 10 mm

## Brc1cc(Br)cc(/C=N/Nc2ncnc3[nH]ccc23)c1
[10]
  inhibition zone (IZ): 21 mm
[11]
  inhibition zone (IZ): 21 mm

## CCC(C)N1C=NC2Oc3[nH]c(=O)[nH]c(=O)c3C(c3ccc(OC)cc3)C2C1=N (stereo unspecified)
[9]
  inhibition zone (IZ): 10 mm

## Cc1nc(-c2ccc(C(C)(C)C)cc2)sc1-c1ccnc(NCCCN)n1
[5]
  MIC: 4 µg/mL

## COc1nc2ccccc2nc1N1CC(C(=O)O)=CC1=O
[12]
  MIC: 0.78 µg/mL (≈ 2.73 µM)
[13]
  MIC: 0.78 µg/mL (≈ 2.73 µM)
[14]
  MIC: 0.78 µg/mL (≈ 2.73 µM)
[15]
  MIC50: 0.78 µg/mL (≈ 2.73 µM)

## Nc1nc(-c2ccccc2)cc(-c2cnc(Cl)cn2)n1
[3]
  MIC: 97.3 µM (≈ 27.6 µg/mL)
[4]
  MIC: 97.3 µM (≈ 27.6 µg/mL)

## CC1=N/C(=C\c2ccc(Cl)cc2)C(=O)N1c1c(N)n(C)c(=O)n(C)c1=O
[8]
  inhibition zone (IZ): 10 mm

## Nc1nc(Cc2ccco2)cc(-c2cnc(Cl)cn2)n1
[3]
  MIC: 110 µM (≈ 31.8 µg/mL)
[4]
  MIC: 110 µM (≈ 31.8 µg/mL)

## O=[N+]([O-])c1ccccc1/C=N/c1ncnc2[nH]ccc12
[7]
  inhibition zone (IZ): 13 mm

## CC1=NN(c2ccccc2)C2N=C3SCCN3C(c3ccccc3Cl)C12 (stereo unspecified)
[9]
  inhibition zone (IZ): 24 mm

## CN(C)C=O [DIMETHYLFORMAMIDE]
[1]
  inhibition zone (IZ): 16 mm
